Laboratory results taken from paper PMC6270814, “Effects of Ursolic Acid Derivatives on Caco-2 Cells and Their Alleviating Role in Streptozocin-Induced Type 2 Diabetic Rats” (Molecules, 2014).

Legend:
Caco-2 cells = assay: MTT cytotoxicity assay on Caco-2 cells; assay type: cell-based, Human; settings: Homo sapiens, 24 h, mean ± SD, n = 4, read-out: Inhibition Rate %
Protocol: Human intestinal Caco-2 cells (ATCC, Rockville, MD, USA) were incubated at 37 °C in a humidified atmosphere of 5% CO2 in air. The cells were cultured in Dulbecco’s […] medium (DMEM) with 10% heat-inactivated fetal bovine serum, 1% non-essential amino acids, 1% L-glutamine, 1% penicillin/streptomycin (Gibco Life Technologies, Grand Island, NY, USA). The cells were sub-cultured at confluence by 0.05% trypsin-0.5 mM EDTA treatment before they were applied in the experiment.
A MTT test was conducted to determine the possible toxicity of UA and its derivatives to Caco-2 cells. Briefly, cells were seeded at a density of 1 × 10^4 cells/mL in a 96-well plate and incubated for 24 h. The next day, cells were incubated with vehicle (0.1% DMSO) and compounds at 100, 50, 25, 12.5 μmol/L for 24 h, and then 5 g/L MTT solution (20 μL) was added for 4 h. Absorbance at 570 nm was measured using a Multimodel Plate Reader (Infinite 200, Tecan, Mannedorf, Switzerland).

SGLT-1 = assay: Western blot of SGLT-1 protein expression in Caco-2 cells; assay type: cell-based, Human; settings: 100 μM, 6 h
Protocol: Caco-2 cells were cultured on 6-well plates at a density of 1 × 10^6 cells/well for 13 days. The cells were placed in serum-free medium for 24 h prior to the treatment. Then UA and its derivatives (100 μM) were added, after 6 h incubation, the cells were immediately washed three times with ice-cold PBS and lysed in 200 μL lysis buffer. Cells were allowed to lyse on ice, and then scraped, vortexed, sonicated and stored at −80 °C for further analysis. Protein concentrations were determined as described and cell lysate was subjected to western blot analysis. Briefly, proteins with same amount were denatured in sample buffer, separated on 8% SDS-PAGE gel, and transferred onto a polyvinylidene diflouride membrane. […] Membranes were then incubated overnight at 4 °C in blocking buffer with antibodies for GLUT-2, SGLT-1 and β-actin (EMD, Millipore, Billerica, MA, USA). Membranes were washed with TBST and incubated 1 h with appropriate secondary antibodies. Revelation was performed by using the enhanced chemiluminescence reagent and blue-light sensitive film. Densitometric analysis of films was performed with a Hewlett-Packard scanner equipped with a transparent adaptor and UN-SCAN-IT software.

GLUT-2 = assay: Western blot of GLUT-2 protein expression in Caco-2 cells; assay type: cell-based, Human; settings: 100 μM, 6 h
Protocol: Caco-2 cells were cultured on 6-well plates at a density of 1 × 10^6 cells/well for 13 days. The cells were placed in serum-free medium for 24 h prior to the treatment. Then UA and its derivatives (100 μM) were added, after 6 h incubation, the cells were immediately washed three times with ice-cold PBS and lysed in 200 μL lysis buffer. Cells were allowed to lyse on ice, and then scraped, vortexed, sonicated and stored at −80 °C for further analysis. Protein concentrations were determined as described and cell lysate was subjected to western blot analysis. Briefly, proteins with same amount were denatured in sample buffer, separated on 8% SDS-PAGE gel, and transferred onto a polyvinylidene diflouride membrane. The membranes were blocked for 1 h at 37 °C with 10% defatted milk in Tris-buffered saline (10 mM Tris-HCl, pH 7.5 and 137 mM NaCl) containing 0.05% Tween 20 (TBST). Membranes were then incubated overnight at 4 °C in blocking buffer with antibodies for GLUT-2, SGLT-1 and β-actin (EMD, Millipore, Billerica, MA, USA). Membranes were washed with TBST and incubated 1 h with appropriate secondary antibodies. Revelation was performed by using the enhanced chemiluminescence reagent and blue-light sensitive film. Densitometric analysis of films was performed with a Hewlett-Packard scanner equipped with a transparent adaptor and UN-SCAN-IT software.

[1] = system: STZ-induced diabetic rats; assay: Oxidative stress markers (GSH, SOD, MDA) in liver and kidney of STZ-induced diabetic rats; assay type: in vivo, rat; settings: 4 weeks
Protocol: Diabetes was induced by a single intraperitoneal injection of streptozotocin (Sigma-Aldrich, St. Louis, MO, USA) at a dose of 65 mg/kg body weight. STZ was dissolved in 0.1 M cold citrate buffer, pH 4.5. Control group were injected with citrate buffer alone. After 7 days for the development of diabetes, plasma glucose levels were determined of each rat. Rats with fasting blood glucose (FBG) range of above 16.7 mmol/L were considered as DM rats and were used for further study.
According to the body weight and plasma glucose levels the rats were divided randomly into seven groups with six rats each and treated as follows: • Group I: Normal rats treated with 0.5% CMC-Na (2 mL/200 g body weight). • Group II: Diabetic rats treated with 0.5% CMC-Na. • Group III: Diabetic rats treated with 10 mg/kg of glibenclamide. • Group IV: Diabetic rats treated with 100 mg/kg of compound 1 (UA). • Group V: Diabetic rats treated with 100 mg/kg of compound 10. • Group VI: Diabetic rats treated with 100 mg/kg of compound 11. • Group VII: Diabetic rats treated with 100 mg/kg of compound 12.
The treatment was continued daily for 28 days. Blood glucose levels and body weight were measured every week to ascertain the status of diabetes. After 4 weeks of treatment, the animals were fasted for 12 h and sacrificed by cervical dislocation under mild anaesthetization, blood was collected into heparinized tubes and centrifuged at 2,000 rpm for 10 min. Livers and kidneys were removed, washed and homogenized in ice-cold normal saline. This homogenates were centrifuged at 3,000 rpm for 10 min at 4 °C, and the supernatants were collected for the estimate of antioxidant markers.
The tissue homogenates of liver and kidney were used for the estimate of antioxidant markers. Glutathione (GSH) level was measured with 5, 5'-dithiobis-(2-nitrobenzoic acid) (DTNB) as described by Sedlak and Lindsay. Superoxide dismutase (SOD) activity was assessed according to the method of Sinha. Malondialdehyde (MDA) activity was estimated with the thiobarbituric acid method.

## CCC(=O)O[C@H]1CC[C@@]2(C)C(CC[C@]3(C)C2CC=C2C4[C@@H](C)[C@H](C)CC[C@]4(C(=O)O)CC[C@]23C)C1(C)C (stereo partly drawn) [Compound 10]
Caco-2 cells
  inhibition at 100 µM: 7.84 ± 4.15%
SGLT-1
  effect on protein expression of SGLT-1: significantly reduce
GLUT-2
  effect on expression of protein GLUT-2: significant effects on reducing
[1]; liver and kidney of STZ diabetic rats
  SOD level in the liver and kidney: great improvement
[1]; liver of STZ diabetic rats
  GSH level in liver: significant effects
[1]; liver of STZ diabetic rats, daily administration
  MDA level in the liver: obviously down-regulated
